One block for each compound: values may come before it.
Columns and labels:
hTEAD4 (nonacylated) [1] = target: T1, hTEAD4 (nonacylated) (Homo sapiens, UniProt Q15561); assay: FP-based competitive binding assay with FITC-palmitate tracer; conditions: relative to 19; for fold increase in the IC50 values: said of the IC50 values of both assays
T1 construct: N-terminal His6-tagged hTEAD4^217–434 was subcloned; made in house; host or cells: Escherichia coli BL21-CodonPlus (DE3)-RIPL
Procedure: To serially diluted solution of the tested compounds in 5 μL assay buffer [HEPES (25 mM) and NaCl (150 mM), pH 6.5 buffer], freshly prepared 5 μL of 0.15 μM protein solution was added and incubated at room temperature for 10 min followed by 5 μL of 30 nM FITC-palmitate solution, giving 15 μL final assay volume, 50 nM protein, and 10 nM tracer. The assay plate was shaken at room temperature for 1 h before measuring the FP (Ex/Em: 485/535 nm).

hTEAD4 (nonacylated) [2] = target: T1, hTEAD4 (nonacylated); assay: Thiol conjugation assay (CPM probe); assay type: binding; conditions: for Inhibition of the CPM fluorescence signal increase: assay validation with known central pocket binders; for fold reduction of TEAD binding in the thiol conjugation assay: relative to 19
Procedure: To serially diluted solutions of the tested compounds in 5 μL of assay buffer [HEPES (25 mM) and NaCl (150 mM) pH 6.5], freshly prepared 5 μL of 0.45 μM protein solution was added and incubated at room temperature for 10 min, followed by addition of 5 μL of 0.45 μM CPM solution, giving a 15 μL final assay volume, 150 nM protein, and 150 nM CPM. The assay plate was shaken at room temperature for 1 h before measuring the fluorescence (Ex/Em: 380/470 nm). Compound 19 was used as an internal standard to determine 100% inhibition.
A library of 14,000 compounds was screened in 1536-well plates using pH 6.5 MES buffer. To the preincubated solution of nonacylated hTEAD4 (0.15 μM final concentration) and compound solution (12.5 μM final concentration), CPM (0.15 μM final concentration) was added, and the assay plates were incubated at room temperature for 50 min before measuring the fluorescence (Ex/Em: 360/465 nm) using Spectramax Paradigm (Molecular Devices). Z′ = 0.6–0.8 (10-plates).

TEAD central pocket = target: TEAD central pocket; set-up: method as in PMID 26592798; conditions: read-out: ITC Kd; cited from earlier work
hTEAD4 (nonacylated) [3] = target: T1, hTEAD4 (nonacylated); assay: Saturation binding of FITC-palmitate (FP); conditions: 10 nM tracer
Procedure: To a serially diluted solution of nonacylated hTEAD4 in 12 μL of assay buffer [HEPES (25 mM) and NaCl (150 mM) pH 6.5], 8 μL of 25 nM FITC-palmitate solution was added, giving 20 μL final assay volume with a 10 nM tracer. The assay plate was incubated at room temperature for 1 h before measuring FP (Ex/Em: 485/535 nM).

hTEAD4 (nonacylated) [4] = target: T1, hTEAD4 (nonacylated); assay: Differential scanning fluorimetry; assay type: binding; conditions: 20 μM protein, 80 μM inhibitor
Procedure: Nonacylated hTEAD4 (20 μM) was incubated in the absence or presence of inhibitors (80 μM) at 25 °C for 10 min. Then, SYPRO orange (Sigma-Aldrich) at a final concentration of 5× was added and the mixture was heated at a ramp rate of 1 °C/min in a qPCR machine (Applied Biosystems). The derivative of the SYPRO orange fluorescent intensity is plotted as a function of temperature.

[5] = target: T2, hTEAD4 (nonacylated) with human YAP50–100 (Homo sapiens, UniProt Q15561); assay: FP-based competitive TEAD–YAP interaction assay (FITC-hYAP50–100); assay type: binding; conditions: versus 19
T2 construct: N-terminal His6-tagged hTEAD4^217–434 was subcloned; made in house; host or cells: Escherichia coli BL21-CodonPlus (DE3)-RIPL (TEAD4); solid-phase synthesis (YAP peptide)
T2 sequence (Q15561 217-434): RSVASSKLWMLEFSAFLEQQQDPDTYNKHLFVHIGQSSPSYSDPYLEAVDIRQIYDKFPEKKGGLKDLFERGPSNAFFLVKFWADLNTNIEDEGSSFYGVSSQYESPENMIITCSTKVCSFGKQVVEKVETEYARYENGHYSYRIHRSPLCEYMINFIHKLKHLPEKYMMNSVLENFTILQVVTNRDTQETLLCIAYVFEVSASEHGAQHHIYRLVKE
Procedure: All the TEAD–YAP binding experiments were performed in phosphate-buffered saline (PBS) (pH 7.5).
To serially diluted solution of the tested compounds in 5 μL of PBS, freshly prepared 5 μL of protein solution was added and incubated at room temperature for 10 min followed by addition of 5 μL of FAM-YAP^50–100 solution. The assay plate was shaken at room temperature for 1 h before measuring the FP (Ex/Em: 485/535 nm). Final protein and FAM concentrations are as follows (FAM/protein): hTEAD4 (nonacylated): 2 nM/5 nM, hTEAD4 (acylated): 3 nM/15 nM, mTEAD4_Cys360Ser: 10 nM/50 nM, and mTEAD4_Cys360Ala: 10 nM/50 nM.

TEAD target gene ANKRD1 = assay: RT-qPCR of TEAD target gene expression in HEK293 cells; assay type: cell-based; conditions: 6 h
Procedure: HEK293 cells were treated with DMSO or the indicated compound for the indicated duration. RNA was extracted using the RNeasy Plus Mini Kit (QIAGEN, Hilden, Germany) following the manufacturer’s procedure. DNA was removed on the column by DNase digestion with the RNase-free DNase Set (QIAGEN, Hilden, Germany) according to the manufacturer’s instructions. Following the manufacturer’s protocol, cDNA templates were synthesized from 700 ng total RNA using the QuantiTect Reverse Transcription Kit (QIAGEN, Hilden, Germany).
The expression levels of the TEAD target gene ANKRD1 was assessed by real-time quantitative PCR. A total of 100 ng of cDNA was amplified using 500 nM gene-specific primers and SsoAdvanced Universal SYBR Green Supermix (Bio-Rad Laboratories, Feldkirchen, Germany) in a total volume of 10 μL for 50 cycles. All measurements were performed in both technical and biological triplicates using a CFX96 Touch Real-Time PCR Detection System (Bio-Rad Laboratories, Feldkirchen, Germany).
The sequences of primers for ANKRD1 were forward 5′-[…]-3′ and reverse 5′-[…]-3′. The sequences of primers for GAPDH were forward 5′-[…]-3′ and reverse 5′-[…]-3′.

[6] = Assay media stability (HPLC); assay type: physicochemical; conditions: MES buffer, pH 6.5, 1 h, rt
Procedure: The compounds were incubated in MES (25 mM), pH 6.5 buffer or HEPES (25 mM) and NaCl (150 mM) pH 6.5 buffer for an hour at room temperature before injecting into a reverse-phase HPLC system (ThermoScientific_Ultimate 3000) equipped with a C18 column (2/50 Nucleodur C18 gravity 1.8 μm von Macherey-Nagel).

hTEAD4 (nonacylated) [7] = target: T1, hTEAD4 (nonacylated); assay: Whole-protein ESI–MS of covalent modification; assay type: binding; conditions: 8 equiv of compound, 1 h, rt
Procedure: The protein solution (1 μL 5 μM) was injected to UPLC-MS (ThermoScientific_UltiMate 3000 LC coupled to a Velos Pro MS) through a desalting column (MassPREP Online desalting, 2.1 × 10 mm). For reactions, 1 μM of the protein was incubated at room temperature for 1 h with 8 equiv of the compound in HEPES (25 mM) and NaCl (150 mM) pH 6.5 buffer. Then, the mixture was centrifuged before injecting 5 μL. The deconvolution of m/z values was performed using Promass Xcalibur software.

mTEAD4 (nonacylated) = target: T3, mTEAD4 (nonacylated) (Mus musculus, UniProt Q62296); assay: 1H–15N HSQC NMR; assay type: binding; conditions: 0.5 mM compound, versus DMSO
T3 construct: made in house
T3 sequence (Q62296 210-427 limits assumed): as the sequence (Q15561 217-434) above, with V3I, Q19R, G35S, A48T, D67E, E91D, S96A, S142L counted along it
Procedure: The ^13C/^15N-labeled mTEAD4 was prepared following a protocol established earlier,[45] and the protein was deacylated as described above for hTEAD4. ^1H–^15N HSQC spectra in the presence of DMSO or the test compound (0.5 mM) were collected at 37 °C on a Bruker 600 MHz magnet equipped with a cryoprobe in 20 mM HEPES, pH 7.3 buffer containing 150 mM NaCl and 1 mM DTT. The spectra were processed and overlaid.

[8] = set-up: method as in PMID 21164073; conditions: acidic 2-OH group; cited from earlier work

T1 sequence (Q15561 217-434): as the sequence (Q15561 217-434) above

fold increase in the IC50 values (hTEAD4 (nonacylated) [1]): more than 20 fold
SMILES: O=c1cc(CO)oc(C(Nc2nc3ccccc3[nH]2)c2ccccc2)c1O (stereo not shown) [Compound 28, 2-(((1H-Benzo[d]imidazol-2-yl)amino)(phenyl)methyl)-3-hydroxy-6-(hydroxymethyl)-4H-pyran-4-one]

SMILES: O=C(O)c1cccnc1Nc1cccc(C(F)(F)F)c1 [Compound 2, niflumic acid, reference compound]
Inhibition of the CPM fluorescence signal increase (hTEAD4 (nonacylated) [2]): inhibited the signal increase in a dose-dependent manner | Kd (TEAD central pocket): 28 µM

Kd (hTEAD4 (nonacylated) [3]): 0.028 µM
SMILES: CCCCCCCCCCCCCCCC(=O)NCCCOCCOCCOCCCNC(=S)Nc1ccc(-c2c3ccc(=O)cc-3oc3cc(O)ccc23)c(C(=O)O)c1 [Compound S4, 2-(6-Hydroxy-3-oxoi-3H-xanthen-9-yl)-5-(3-(15-oxo-4,7,10-trioxa-14-azatriacontyl)thioureido)benzoic Acid]

fold increase in the IC50 values (hTEAD4 (nonacylated) [1]): more than 20 fold | Tm shift (hTEAD4 (nonacylated) [4]): did not induce any change
SMILES: O=c1cc(CO)oc(C(Nc2nccs2)c2ccccc2)c1O (stereo not shown) [Compound 27, 3-Hydroxy-6-(hydroxymethyl)-2-(phenyl(thiazol-2-ylamino)methyl)-4H-pyran-4-one]

SMILES: O=C(CCl)c1ccccc1Nc1cccc(C(F)(F)F)c1 [Compound 3, reference compound]
Inhibition of the CPM fluorescence signal increase (hTEAD4 (nonacylated) [2]): inhibited the signal increase in a dose-dependent manner

ΔTm at 80 µM (hTEAD4 (nonacylated) [4]; read-out: Tm shift): -2 °C
SMILES: O=c1cc(CO)oc(C(Nc2ccccn2)c2ccc(Br)cc2)c1O (stereo not shown) [Compound 42, 2-((4-Bromophenyl)(pyridin-2-ylamino)methyl)-3-hydroxy-6-(hydroxymethyl)-4H-pyran-4-one]

fold increase in the IC50 values (hTEAD4 (nonacylated) [1]): more than 20 fold
SMILES: O=c1cc(CO)oc(C(Nc2ncccn2)c2ccccc2)c1O (stereo not shown) [Compound 26, 3-Hydroxy-6-(hydroxymethyl)-2-(phenyl(pyrimidin-2-ylamino)methyl)-4H-pyran-4-one]

activity in the thiol conjugation assay (hTEAD4 (nonacylated) [2]): inactive | Tm shift (hTEAD4 (nonacylated) [4]): did not induce any change | fold lower activity in TEAD–YAP interaction assay [5]: > 100 fold | stability in assay medium [6]: stable | modification of the protein (whole-protein ESI–MS) (hTEAD4 (nonacylated) [7]): modification of TEAD was not observed | effect on 1H–15N HSQC spectrum (mTEAD4 (nonacylated)): did not induce a significant change
SMILES: COc1c(C(Nc2ccccc2)c2ccccc2)oc(CO)cc1=O (stereo not shown) [Compound 45, 6-(Hydroxymethyl)-3-methoxy-2-(phenyl(phenylamino)methyl)-4H-pyran-4-one]
reduction of the mRNA level of ANKRD1 compared to the DMSO control (TEAD target gene ANKRD1): only a minimal effect

fold reduction of TEAD binding in the thiol conjugation assay (hTEAD4 (nonacylated) [2]): 100 fold
SMILES: O=c1cc(CO)oc(C(Nc2ccccc2)C2CCCCC2)c1O (stereo not shown) [Compound 30, 2-(Cyclohexyl(phenylamino)methyl)-3-hydroxy-6-(hydroxymethyl)-4H-pyran-4-one]

activity in the thiol conjugation assay (hTEAD4 (nonacylated) [2]): inactive
SMILES: COc1c(C(Nc2ccccn2)c2ccccc2F)oc(CO)cc1=O (stereo not shown) [Compound 46, 2-((2-Fluorophenyl)(pyridin-2-ylamino)methyl)-6-(hydroxymethyl)-3-methoxy-4H-pyran-4-one]

fold reduction of TEAD binding in the thiol conjugation assay (hTEAD4 (nonacylated) [2]): 100 fold
SMILES: O=c1cc(CO)oc(CNc2ccccc2)c1O [Compound 32, 3-Hydroxy-6-(hydroxymethyl)-2-((phenylamino)methyl)-4H-pyran-4-one]

SMILES: O=c1cc(CO)occ1O [kojic acid]
pKa [8]: 7.9

SMILES: CCCCCCCCCCCCCCCC(=O)O [palmitic acid, reference compound]
Inhibition of the CPM fluorescence signal increase (hTEAD4 (nonacylated) [2]): inhibited the signal increase in a dose-dependent manner

fold lowering of inhibitory activity in the FP assay (hTEAD4 (nonacylated) [1]): 2–3 fold
SMILES: O=c1cc(CO)oc(C(Nc2ccccc2)c2ccccn2)c1O (stereo not shown) [Compound 40, 3-Hydroxy-6-(hydroxymethyl)-2-((phenylamino)(pyridin-2-yl)methyl)-4H-pyran-4-one]

SMILES: O=C(O)c1ccccc1Nc1cccc(C(F)(F)F)c1 [Compound 1, flufenamic acid, reference compound]
Inhibition of the CPM fluorescence signal increase (hTEAD4 (nonacylated) [2]): inhibited the signal increase in a dose-dependent manner | Kd (TEAD central pocket): 73 µM

fold reduction of TEAD binding in the thiol conjugation assay (hTEAD4 (nonacylated) [2]): 100 fold
SMILES: CC(C)C(Nc1ccccc1)c1oc(CO)cc(=O)c1O (stereo not shown) [Compound 31, 3-Hydroxy-6-(hydroxymethyl)-2-(2-methyl-1-(phenylamino)propyl)-4H-pyran-4-one]

Source: paper PMC7586386, “Discovery of Covalent Inhibitors Targeting the Transcriptional Enhanced Associate Domain Central Pocket” (Journal of Medicinal Chemistry, 2020)
